Measurements as given in patent publication US20230286973A1, “PROTEIN SECRETION INHIBITORS” (KEZAR LIFE SCIENCES, priority 2020, published 2023).
pEC50, pIC50: −log10 of the molar value.

Key:
[1] = system: multiple myeloma cell line U266B1; assay: U266 Cell Viability Assay; assay type: cell-based, human; settings: Homo sapiens, U-266, 48 h, U266B1 cells, Celltiter-Glo
In short: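 CellTiter-Glo luminescence was read after a 48 h compound exposure (37 °C, 5% CO2) of human U266B1 myeloma cells grown in 10% FBS-supplemented RPMI 1640. Data for structures shown without defined stereochemistry refer to stereoisomer mixtures.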

[2] = system: PD1-ss+10aa/Gaussia Luciferase; assay: Dox-Induced PD1-ss-Gluc Assay; assay type: cell-based; settings: 24 hr Dox induction; 293FRT/TO cells; mean; read-out: 24 hr Dox Inducible PD1ssGluc 293FRT/TO: Mean IC50
In short: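 Flp-In 293 T-REx, stable line; Tet-regulated PD1-ss+10aa fused to Gaussia luciferase; plated day prior; cpd + doxycycline in DMSO/media; 37 °C, 5% CO2.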

[3] = Liver Microsome Stability Assay (human); settings: human liver microsomes, with NADPH, 1.0 uM compound
Experimental: (§1) Stability of a compound was assessed in the presence of liver microsomes from various sources—mouse, rat, monkey and human liver microsomes. 1.0 uM compound, 0.4% DMSO in 0.1 M Potassium Phosphate with 1.0 mg/mL liver microsomes, were incubated at 37° C. with or without 1 mM NADPH. The samples were quenched at 0, and 30 minutes.

[4] = system: HER3-ss+4aa/Gaussia Luciferase; assay: Dox-Induced Her3-ss-Gluc Assay; assay type: cell-based; settings: 24 hr Dox induction; 293FRT/TO cells; mean; read-out: 24 hr Dox Inducible Her3(ss + 4)Gluc 293FRT/TO: Mean IC50
In short: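 Compounds were diluted in DMSO/media containing doxycycline. They were added to Flp-In 293 T-REx cells plated the previous day, then incubated at 37 °C under 5% CO2. These cells stably express, under T-REx control, Gaussia luciferase fused to the HER3 signal sequence plus 4 amino acids.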

[5] = Liver Microsome Stability Assay (mouse); settings: mouse liver microsomes, with NADPH, 1.0 uM compound
Experimental: as §1

[6] = Liver Microsome Stability Assay (rat); settings: rat liver microsomes, with NADPH, 1.0 uM compound
Experimental: as §1

[7] = system: IL-2-FL/Gaussia Luciferase; assay: Dox Induced IL2-FL-Gluc Assay; assay type: cell-based; settings: for pIC50: 24 hr Dox induction, 293FRT/TO cells, mean, read-out: 24 hr Dox Inducible IL2FLGluc 293FRT/TO: Mean IC50; for 24 hr Dox Inducible IL2FLGluc 293FRT/TO: IL2/PD1: ratio of IL2FLGluc IC50 to PD1ssGluc IC50, '<=>' given where both are I.A.
In short: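 Compounds in DMSO/medium with doxycycline were applied to a 293 T-REx stable line expressing an IL-2 (aa 1-153)–Gaussia luciferase fusion under tetracycline-regulated control, cells seeded one day earlier; incubation at 37 °C, 5% CO2. Structures drawn without stereochemistry were tested as stereoisomer mixtures.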

[8] = system: multiple myeloma cell line NCI-H929; assay: H929 Cell Viability Assay; assay type: cell-based, human; settings: Homo sapiens, NCI-H929, 48 h, NCI-H929 cells, Celltiter-Glo
In short: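 Luminescent CellTiter-Glo read-out of viability after a 48 h exposure (37° C, 5% CO2) of NCI-H929 myeloma cells to compound dilutions in RPMI 1640 plus 10% FBS. Data for structures drawn without stereochemistry refer to stereoisomer mixtures.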

[9] = system: TNFα-FL/Gaussia Luciferase; assay: Dox Induced TNFα-FL-Gluc Assay; assay type: cell-based; settings: for pIC50: 24 hr Dox induction, 293FRT/TO cells, mean, read-out: 24 hr Dox Inducible TNFaFLGluc 293FRT/TO: Mean IC50; for 24 hr Dox Inducible TNFaFLGluc 293FRT/TO: TNF/PD1: ratio of TNFaFLGluc IC50 to PD1ssGluc IC50, '<=>' given where both are I.A.
In short: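 Compound was added with doxycycline to cells plated a day earlier, incubating at 37° C under 5% CO2. The reporter line is 293 T-REx expressing a TNFα (1-233)–Gaussia luciferase fusion under tetracycline-regulated control.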

[10] = Liver Microsome Stability Assay (monkey); settings: monkey liver microsomes, with NADPH, 1.0 uM compound
Experimental: as §1

Compound | pEC50 [1] | pIC50 [2] | Liver Microsome Stability (Multiple Species): Human - % Remaining after 30 min w/NADPH [3] [%] | pIC50 [4] | Liver Microsome Stability (Multiple Species): Mouse - % Remaining after 30 min w/NADPH [5] [%] | Liver Microsome Stability (Multiple Species): Rat - % Remaining after 30 min w/NADPH [6] [%] | pIC50 [7] | pEC50 [8] | pIC50 [9] | Liver Microsome Stability (Multiple Species): Monkey - % Remaining after 30 min w/NADPH [10] [%] | 24 hr Dox Inducible IL2FLGluc 293FRT/TO: IL2/PD1 [7] | 24 hr Dox Inducible TNFaFLGluc 293FRT/TO: TNF/PD1 [9]
N#CCC1(Cn2cccc2C(=O)Nc2nc([C@H]3CCCN3c3ccccc3)cs2)CCC1 [Compound C9, (R)-1-((1-(cyanomethyl)cyclobutyl)methyl)-N-(4-(1-phenylpyrrolidin-2-yl)thiazol-2-yl)-1H-pyrrole-2-carboxamide] | < 4.60 | 5.34 | 3.68 | 5.21 | 0.81 | 8.24 | 5.12 | < 4.60 | < 4.60 | 0.38 | 1.7 | >5.49
O=C(Nc1nc([C@H]2CCCN2c2ccccc2)cs1)c1cccn1Cc1ccc(=O)[nH]c1 [Compound C10] | < 4.60 | 5.28 | 22.6 | 4.86 | 29.5 | 38.8 | 5.15 | 4.61 | < 4.60 | 9.66 | 1.4 | >4.80
O=C(O)CCCCn1cccc1C(=O)Nc1nc([C@H]2CCCN2c2ccccc2)cs1 [Compound C11] | < 4.60 | < 4.60 | 65.2 | < 4.60 | 52.3 | 83.1 | < 4.60 | < 4.60 | < 4.60 | 76.1 | 1 | 
O=C(O)CCn1cccc1C(=O)Nc1nc([C@H]2CCCN2c2ccccc2)cs1 [Compound C12] | < 4.60 | < 4.60 | 75.1 | < 4.60 | 60.4 | 76.3 | < 4.60 | < 4.60 | < 4.60 | 90.9 | 1 | 
O=C(O)CCCn1cccc1C(=O)Nc1nc([C@H]2CCCN2c2ccccc2)cs1 [Compound C13] | < 4.60 | < 4.60 | 82.1 | < 4.60 | 64.9 | 87.9 | < 4.60 | < 4.60 | < 4.60 | 81.3 | 1 | 
O=C(Nc1nc([C@H]2CCCN2c2ccccc2)cs1)c1cccn1CCCc1nnn[nH]1 [Compound C14, (R)-1-(3-(1H-tetrazol-5-yl)propyl)-N-(4-(1-phenylpyrrolidin-2-yl)thiazol-2-yl)-1H-pyrrole-2-carboxamide] | < 4.60 | < 4.60 | 74.3 | < 4.60 | 57.8 | 78.7 | < 4.60 | < 4.60 | < 4.60 | 90.3 | 1 | 
NC(=O)CCn1cccc1C(=O)Nc1nc([C@H]2CCCN2c2ccccc2)cs1 [Compound C15] | < 4.60 | < 4.60 | 29.3 | < 4.60 | 31.7 | 18.3 | < 4.60 | < 4.60 | < 4.60 | 22.4 | 1 | 
O=C(Nc1nc([C@H]2CCCN2c2ccccc2)cs1)c1cccn1CCc1nnn[nH]1 [Compound C16, (R)-1-(2-(1H-tetrazol-5-yl)ethyl)-N-(4-(1-phenylpyrrolidin-2-yl)thiazol-2-yl)-1H-pyrrole-2-carboxamide] | < 4.60 | 5.09 | 8.13 | 5.05 | 26.7 | 3.26 | 5.16 | < 4.60 | < 4.60 | 78.9 | 0.85 | >3.09

Further lines, with some results ahead:

pEC50 [1] | pIC50 [2] | Liver Microsome Stability (Multiple Species): Human - % Remaining after 30 min w/NADPH [3] [%] | pIC50 [4] | Liver Microsome Stability (Multiple Species): Mouse - % Remaining after 30 min w/NADPH [5] [%] | Liver Microsome Stability (Multiple Species): Rat - % Remaining after 30 min w/NADPH [6] [%] | pIC50 [7] | pEC50 [8] | pIC50 [9] | Liver Microsome Stability (Multiple Species): Monkey - % Remaining after 30 min w/NADPH [10] [%] | Compound | 24 hr Dox Inducible IL2FLGluc 293FRT/TO: IL2/PD1 [7] | 24 hr Dox Inducible TNFaFLGluc 293FRT/TO: TNF/PD1 [9]
4.82 | 5.58 | 32.8 | 5.28 | 31.1 | 8.19 | 5.14 | 4.93 | < 4.60 | 7.86 | N#CC1CC1Cn1cccc1C(=O)Nc1nc([C@H]2CCCN2c2ccccc2)cs1 (stereo partly drawn) [Compound C6, 1-((2-cyanocyclopropyl)methyl)-N-(4-((R)-1-phenylpyrrolidin-2-yl)thiazol-2-yl)-1H-pyrrole-2-carboxamide] | 2.8 | >9.60
< 4.60 | 5.43 | 39.7 | 5.10 | 26.6 | 27.6 | < 4.60 | < 4.60 | < 4.60 | 10.4 | NC(=O)CCCn1cccc1C(=O)Nc1nc([C@H]2CCCN2c2ccccc2)cs1 [Compound C7] | 6.8 | >6.75
< 4.60 | 5.42 | 5.88 | 5.02 | 1.66 | 8.76 | 4.65 | < 4.60 | < 4.60 | 1.37 | N#CCC1(Cn2cccc2C(=O)Nc2nc([C@H]3CCCN3c3ccccc3)cs2)CC1 [Compound C8, (R)-1-((1-(cyanomethyl)cyclopropyl)methyl)-N-(4-(1-phenylpyrrolidin-2-yl)thiazol-2-yl)-1H-pyrrole-2-carboxamide] | 5.9 | >6.61
